“Also recorded” adds a separate entry of the source.
What was measured:
[1] = test system: TGFβ-induced myofibroblast formation in human fibroblasts; assay: Western blot of myofibroblast markers αSMA and calponin in TGFβ-treated human (TED orbital) fibroblasts; type: cell-based; details: for expression of αSMA and calponin: TGFβ; for expression of αSMA and calponin, dose dependence: 10-250 nM
Procedure: TED fibroblasts were treated with TGFβ (1 ng/ml) in the presence or absence of 10-250 nM salinomycin for 72 hours to allow formation of myofibroblasts. After 72 hours, cells were harvested and analyzed by Western blot. As expected, the fibroblasts robustly responded to TGFβ, expressing high levels of αSMA and calponin (FIG. 2A). […] At 50 nM salinomycin, expression of αSMA was reduced by 4-fold over TGFβ treatment alone. Furthermore, at 250 nM salinomycin, αSMA expression was reduced by approximately 16-fold, to levels at or below untreated fibroblasts. […] Another key role of myofibroblasts in scar formation is the production of collagen. Whether salinomycin could block myofibroblast collagen production was assessed. Cells were treated with TGFβ and salinomycin as above and after 72 hours, culture medium was collected and analyzed for collagen levels using a specific collagen I antibody and slot blot analysis.
To test these four compounds, human fibroblasts were treated with TGFβ in the absence or presence of 250 nM of either salinomycin, narasin, clioquinol or monensin for 72 hours. After treatment, cell lysates were harvested and analyzed for the presence of the myofibroblast markers, αSMA and calponin (FIG. 3B).

[2] = test system: human fibroblasts; assay: BrdU incorporation assay (cell proliferation); type: cell-based; details: for basal fibroblast proliferation (BrdU incorporation): 250 nM, without TGFβ
Procedure: Human fibroblasts were seeded on a 96-well plate at a density of 1×10^5 cells/well. Cells were treated in triplicate. Cell proliferation was determined using the bromodeoxyuridine (BrdU) assay following manufacturer's instructions. Briefly, cells were treated with a BrdU label at a 1:2000 dilution for 24 h after the initial 72 h treatment with TGFβ+/−drugs. BrdU incorporation was measured using the BrdU Cell Proliferation Assay kit (Calbiochem, San Diego, Calif.) at 450-540 nm using a Varioskan microplate reader.
While salinomycin and other polyether ionophores blocked myofibroblast formation, it was next assessed whether these effects were a result of toxicity and/or due to a block of cell proliferation. Though the treatment doses are relatively low (efficacy in 100-250 nM range), a loss of cell viability could still be a possibility. To test this, human fibroblasts were treated with vehicle (DMSO), 50-250 nM salinomycin alone, TGFβ or TGFβ plus 250 nM salinomycin. As a positive control, fibroblasts were treated with the cytotoxic drug, puromycin. Treated cells were cultured in the presence of alamar blue reagent, which measures mitochondrial oxidation-reduction (REDOX) potential and serves as a quantitative viability sensor. After 72 hours of culture, alamar blue fluorescence was measured to assay cell viability (FIG. 4A). […] It was also tested whether salinomycin affects basal fibroblast proliferation. To address this, cells were treated with vehicle or 250 nm of either salinomycin or narasin for 24 hours in the presence of bromodeoxyuridine (BrdU) to measure cell proliferation ([…], first three bars). […] BrdU was also added to cells treated with TGFβ in the presence or absence of 250 nM salinomycin or narasin (FIG. 4B, last three bars). As expected, TGFβ induced human fibroblast proliferation. Remarkably, both salinomycin and narasin were able to beneficially block TGFβ induced proliferation by 4 to 5 fold, without affecting basal proliferation levels.

[3] = test system: phospho-Smad2; assay: Western blot of phospho-Smad2/3 in TGFβ-treated human orbital fibroblasts; type: cell-based
Procedure: To further characterize the molecular mechanisms whereby salinomycin (and other polyether antibiotics) blocks TGFβ induced myofibroblast formation, activation kinetics were analyzed for some of the key mediators of TGFβ signaling (Weiss et al., “The TGFbeta superfamily signaling pathway,” Wiley Interdiscip. Rev. Dev. Biol. 2:47-63 (2013), which is hereby incorporated by reference in its entirety). Since salinomycin was first identified as a putative anti-scarring molecule by its ability to block TGFβ-induced Smad activity, the levels of phospho-Smad2 were analyzed by Western blot in cells treated with TGFβ or TGFβ plus salinomycin. […] The experiment was repeated, with samples being incubated for extended periods of time including 5, 24, 48 and 72 h hours (FIG. 5A, top panel).

[4] = test system: capsular fibroblasts; assay: Breast implant capsular fibroblasts treated with TGF-β and salinomycin (Western blot, slot blot, morphology); type: cell-based, human; details: for Thy1 expression: 250 nM, untreated and TGF-β (2.5 ng/mL) treated cultures
Procedure: FIG. 9 is a set of images of capsular fibroblasts explanted from primary tissue samples cultured in vitro. Treatment consisted of 48 hours growth in serum-starved media (0.1% fetal bovine serum), followed by administration of vehicle, 2.5 ng/mL transforming growth factor-beta (TGF-β), 250 nM salinomycin (SNC), or TGF-β plus SNC for 72 hours. […] Original magnification 200×.
After treatment, cells were lysed for protein extraction and analysis via Western blot. Data are presented in graph form (FIG. 10A) and as images of Western blots (FIG. 10B). […] All protein expression is relative to β-tubulin levels. At time of cell harvest, media supernatant was also taken and equal volumes run on a slot blot to compare presence of extracellular soluble collagen. In like manner, collagen I increased with TGF- and was reduced with co-administration of SNC. **=p<0.01; ***=p<0.001; ****=p<0.0001.
Peri-implant tissue samples from irradiated (n=4) and non-irradiated (n=9) breast capsules were analyzed for expression of Thy1 mRNA by qRT-PCR (FIG. 8). Additionally, capsular fibroblasts were grown in vitro and treated with the pro-fibrotic cytokine transforming growth factor-β (TGFβ) and the polyether ionophore salinomycin, and analyzed for expression of Thy1, αSMA, fibronectin, and collagen by Western blot (FIG. 9 and FIGS. 10A-B). To investigate the fundamental role of Thy1 in capsular fibroblast/myofibroblast formation, Thy1 expression was depleted using Thy1 siRNA (delivered by lentiviral transduction) (FIGS. 11A-B).

[5] = test system: TGFβ-induced myofibroblast formation in human fibroblasts; assay: Western blot of myofibroblast markers αSMA and calponin in TGFβ-treated human (TED orbital) fibroblasts; type: cell-based; details: 250 nM, 72 hours
[6] = test system: p38; details: human ovarian cancer, 2-7 uM; cited from earlier work
[7] = 250 nM plus TGF-β 2.5 ng/mL, 72 hours

CC[C@@H](C(=O)[C@@H](C)[C@@H](O)[C@H](C)[C@@H]1O[C@@H]([C@@H](CC)C(=O)O)CC[C@@H]1C)[C@H]1O[C@]2(C=C[C@@H](O)[C@]3(CC[C@@](C)([C@H]4CC[C@](O)(CC)[C@H](C)O4)O3)O2)[C@H](C)C[C@@H]1C [salinomycin]
reduction of αSMA expression over TGFβ treatment alone ([1]; 50 nM, TGFβ 1 ng/ml, 72 hours): 4 fold | reduction of αSMA expression over TGFβ treatment alone ([1]; 250 nM, TGFβ 1 ng/ml, 72 hours): approximately 16 fold | expression of αSMA and calponin ([1]; 250 nM, 72 hours): lower than vehicle levels | expression of αSMA and calponin ([1]; 250 nM, 72 hours, listed as Salinomycin): inhibited expression of αSMA and calponin | TGFβ-dependent expression of alpha smooth muscle actin, calponin and collagen ([1]; 250 nM, primary human fibroblasts): blocked | expression of αSMA and calponin, dose dependence ([1]; TGFβ 1 ng/ml, 72 hours): dose dependent manner | expression of αSMA and calponin, dose dependence ([1]; TGFβ 1 ng/ml, 72 hours, listed as Salinomycin): dose-dependent decrease | expression of myofibroblast markers αSMA and calponin ([1]; 100 and 200 nM, TGFβ 1 ng/ml, 72 hours, densitometry): below baseline levels | TGFβ induced proliferation (BrdU incorporation) ([2]; 250 nM plus TGFβ): significantly blocked TGFβ induced proliferation | basal fibroblast proliferation (BrdU incorporation) [2]: Neither salinomycin nor narasin blocked basal fibroblast proliferation | basal fibroblast proliferation (BrdU incorporation) ([2]; listed as Salinomycin): did not affect basal fibroblast proliferation | reduction of TGFβ induced phospho-Smad2/3 levels ([3]; 250 nM, 5 hours): 2 fold | reduction of phospho-Smad2 levels compared to TGFβ alone ([3]; 250 nM, 5 hours): 80% | reduction of TGFβ induced phospho-Smad2/3 levels ([3]; 250 nM, 24 hours): 8-10 fold | reduction of TGFβ induced phospho-Smad2/3 levels ([3]; 250 nM, 24 hours, listed as Salinomycin): 5 fold | phospho-Smad2 levels ([3]; early time points (30 sec-1 hour), TGFβ): did not affect phospho-Smad2 levels | Alpha-SMA expression [4, 7]: below basal levels | cell morphology (myofibroblastic differentiation) [4, 7]: appears to reduce the effect of TGF-β | Thy1 expression ([4]; 72 hours): dramatically reduced | Thy1 expression ([4]; 72 hours, listed as SNC): significantly reduced | TGFβ-increased αSMA and collagen I ([4]; explanted capsular fibroblasts, TGFβ plus salinomycin): nearly completely inhibited; also recorded: reduced | TGFβ induced expression of αSMA and calponin ([5]; MKK6(glu) expressing cells): attenuated the ability of salinomycin to block | TGFβ induced expression of αSMA and calponin ([5]; control GFP expressing cells): blocked their induction | p38 activity [6]: activated

— US10548911B2, “Small molecule anti-scarring agents” (UNIVERSITY OF ROCHESTER, priority 2014, dated 2020)
